Reference: US11512097B2, “Heterocyclic compounds as Delta-5 desaturase inhibitors and methods of use” (Amgen Inc., priority 2019, dated 2022)
pIC50: −log10 of the molar value.

What follows are compounds tested against T1, Delta-5-Desaturase (D5D), membrane preparations of D5D-overexpressing HEK293 6E cells (Homo sapiens, UniProt O60427) (assay: In vitro measurement of Delta-5-Desaturase inhibitory activity using DGLA-CoA and Arachidonyl-CoA mass spectrometric assays). Conditions: D5D membrane 10 μg/mL, one-hour incubation, average of at least two independent runs.
T1 construct: expressed in transfected cells; host or cells: HEK293 6E cells (membrane preparation)
T1 sequence (O60427 whole entry, species assumed): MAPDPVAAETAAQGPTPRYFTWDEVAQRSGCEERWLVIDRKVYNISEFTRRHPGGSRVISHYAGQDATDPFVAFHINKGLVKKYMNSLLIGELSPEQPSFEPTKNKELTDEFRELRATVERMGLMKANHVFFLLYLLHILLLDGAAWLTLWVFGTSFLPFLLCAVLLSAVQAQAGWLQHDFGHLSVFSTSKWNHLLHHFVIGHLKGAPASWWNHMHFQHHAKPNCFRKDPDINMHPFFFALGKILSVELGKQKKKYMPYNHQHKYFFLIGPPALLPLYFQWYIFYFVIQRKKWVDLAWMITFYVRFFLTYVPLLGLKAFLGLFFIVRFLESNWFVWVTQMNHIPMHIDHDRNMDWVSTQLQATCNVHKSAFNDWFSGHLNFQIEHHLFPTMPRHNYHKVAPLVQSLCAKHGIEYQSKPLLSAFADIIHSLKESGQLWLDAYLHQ
Assay type: biochemical
Method: In Vitro Measurement of Delta-5-Desaturase Inhibitory Activity Using DGLA-CoA and Arachidonyl-CoA Mass Spectrometric Assays Membrane preparations of D5D-overexpressing HEK293 6E cells were prepared in which the total protein concentration was 5.6 mg/mL. Stock D5D membrane preparations were diluted in D5D assay buffer (25 mM 2-amino-2-(hydroxymethyl)-1,3-propanediol, pH 7.5 containing 10 mM MgCl2, 1 mM octyl glucoside (SigmaAldrich O-8001), 1 mM tris(2-carboxyethyl)phosphine hydrochloride (SigmaAldrich 646547)) to a final D5D membrane concentration of 10 μg/mL in an assay plate containing serially diluted test compounds. To 15 μL of this D5D preparation was added 15 μL of a substrate solution (0.25 mM NADH (nicotinamide adenine dinucleotide, Roche Diag. 10107735001), 0.25 mM adenosine triphosphate (SigmaAldrich A-3377), 0.05 mM coenzyme A hydrate (SigmaAldrich C-4282), and 0.01 mM DGLA (dihomo-g-linolenic acid, Sigma E-4504) in the same D5D assay buffer. After one-hour incubation at ambient temperature acetonitrile (30 μL) was added to quench the reaction and plates were centrifuged for 10 min @ 3,000 rpm. Mass spectrometric analysis involved a Rapidfire 360 SPE system coupled to an ABSciex API4000 Triple Quadrupole mass spectrometer using a C18 SPE cartridge (G9203-80105) with ionization in negative mode (solvent A=100% water; solvent B=100% acetonitrile, each solvent containing 5 mM ammonium acetate). DGLA-CoA and Arachidonyl-CoA were detected by multiple reaction monitoring (MRM) of the doubly charged parent ions at m/z 526.6 and 525.6, respectively. […] Sx is value from unknown sample, So is value from DMSO alone and Sc is value from no enzyme well. For CRC analysis, the % of inhibitions were analysed with 4 Parameter Logistic Model or Sigmoidal Dose-Response Model using XLfit (IDBS, Guilford, UK). The potency of the test item was expressed as IC50 nM, corresponding to the test item concentration able to inhibit the 50% of the enzyme maximal response. IC50 values were averaged values determined by at least two independent runs. The results presented in Table 15 have been generated with the in vitro assay described above. This assay may be used to test any of the compounds described herein to assess and characterize a compound's ability to inhibit D5D.

Row | pIC50 | Compound
1 | 7.84 | O=c1c(-c2cnn(CC(F)(F)C(F)(F)F)c2)c(C(F)(F)F)nc2n1CCS2 [Example 22, 6-[1-(2,2,3,3,3-pentafluoropropyl)-1H-pyrazol-4-yl]-7-(trifluoromethyl)-2H,3H,5H-[1,3]thiazolo[3,2-a]pyrimidin-5-one]
2 | 6.80 | Cc1nn2c(=O)c(-c3cnn(CC4CC4(F)F)c3)c(C(F)(F)F)nc2s1 (stereo not drawn) [Example 23, 6-{1-[(2,2-difluorocyclopropyl)methyl]-1H-pyrazol-4-yl}-2-methyl-7-(trifluoromethyl)-5H-[1,3,4]thiadiazolo[3,2-a]pyrimidin-5-one]
3 | 6.88 | Cc1cn2c(=S)c(-c3cnn(CC(F)(F)C(F)(F)F)c3)c(C(F)(F)F)nc2n1C [Example 92, 1,2-dimethyl-6-[1-(2,2,3,3,3-pentafluoropropyl)-1H-pyrazol-4-yl]-7-(trifluoromethyl)-1H,5H-imidazo[1,2-a]pyrimidine-5-thione]
4 | 7.33 | O=c1c(-c2cnn(CC(F)(F)C(F)(F)F)c2)c(C(F)(F)F)nc2n1CCC2 [Example 19, 3-[1-(2,2,3,3,3-pentafluoropropyl)-1H-pyrazol-4-yl]-2-(trifluoromethyl)-4H,6H,7H,8H-pyrrolo[1,2-a]pyrimidin-4-one]
5 | 6.11 | Cc1cn2c(=O)c(-c3cnn(CCC(F)(F)F)c3)c(C(F)(F)F)nc2n1-c1ccccn1 [Example 94, 2-methyl-1-(pyridin-2-yl)-7-(trifluoromethyl)-6-[1-(3,3,3-trifluoropropyl)-1H-pyrazol-4-yl]-1H,5H-imidazo[1,2-a]pyrimidin-5-one]
6 | 7.13 | Cc1cn2c(=O)c(-c3cnn(CC4CC4)c3)c(C(F)(F)F)nc2n1C [Example 61, 6-[1-(cyclopropylmethyl)-1H-pyrazol-4-yl]-1,2-dimethyl-7-(trifluoromethyl)-1H,5H-imidazo[1,2-a]pyrimidin-5-one]
7 | 6.80 | COCc1cn2c(=O)c(-c3cnn(CCC(F)(F)F)c3)c(C(F)(F)F)nc2n1C [Example 63, 2-(methoxymethyl)-1-methyl-7-(trifluoromethyl)-6-[1-(3,3,3-trifluoropropyl)-1H-pyrazol-4-yl]-1H,5H-imidazo[1,2-a]pyrimidin-5-one]
8 | 4.44 | Cc1cn2c(=O)c(-c3cnn(CC(F)(F)C(F)(F)F)c3)c(C(F)(F)F)nc2n1-c1cncnc1 [Example 99, 2-methyl-6-[1-(2,2,3,3,3-pentafluoropropyl)-1H-pyrazol-4-yl]-1-(pyrimidin-5-yl)-7-(trifluoromethyl)-1H,5H-imidazo[1,2-a]pyrimidin-5-one]
9 | 8.32 | O=c1c(-c2ccc(OCC(F)(F)F)cc2)c(C(F)(F)F)nc2sc(Cl)cn12 [Example 34, 2-chloro-6-[4-(2,2,2-trifluoroethoxy)phenyl]-7-(trifluoromethyl)-5H-[1,3]thiazolo[3,2-a]pyrimidin-5-one]

Continued, compound first:

Row | Compound | pIC50
10 | Cc1cc2nc(C(F)(F)F)c(-c3cnn(CC(F)(F)C(F)(F)F)c3)c(=O)n2n1C [Example 16, 1,2-dimethyl-6-[1-(2,2,3,3,3-pentafluoropropyl)-1H-pyrazol-4-yl]-5-(trifluoromethyl)-1H,7H-pyrazolo[1,5-a]pyrimidin-7-one] | 5.03
11 | Cc1cn2c(=O)c(-c3cnn(CCC(F)(F)F)c3)c(C(F)(F)F)nc2n1CC#N [Example 87, 2-[2-methyl-5-oxo-7-(trifluoromethyl)-6-[1-(3,3,3-trifluoropropyl)-1H-pyrazol-4-yl]-1H,5H-imidazo[1,2-a]pyrimidin-1-yl]acetonitrile] | 8.43
12 | Cn1nnn2c(=O)c(-c3cnn(CC(F)(F)C(F)(F)F)c3)c(C(F)(F)F)nc12 [Example 28, 3-methyl-6-[1-(2,2,3,3,3-pentafluoropropyl)-1H-pyrazol-4-yl]-5-(trifluoromethyl)-3H,7H-[1,2,3,4]tetrazolo[1,5-a]pyrimidin-7-one] | 8.22
13 | O=c1c(-c2cnn(CC(F)(F)C(F)(F)F)c2)c(C(F)(F)F)nc2sccn12 [Example 1, 6-[1-(2,2,3,3,3-pentafluoropropyl)-1H-pyrazol-4-yl]-7-(trifluoromethyl)-5H-[1,3]thiazolo[3,2-a]pyrimidin-5-one] | 8.42
14 | CCOc1nc2sc(C)nn2c(=O)c1-c1cnn(CC(F)(F)C(F)(F)F)c1 [Example 41, 7-ethoxy-2-methyl-6-[1-(2,2,3,3,3-pentafluoropropyl)-1H-pyrazol-4-yl]-5H-[1,3,4]thiadiazolo[3,2-a]pyrimidin-5-one] | 6.06
15 | COCCn1c(C)cn2c(=O)c(-c3cnn(CC(F)(F)C(F)(F)F)c3)c(C(F)(F)F)nc12 [Example 57, 1-(2-methoxyethyl)-2-methyl-6-[1-(2,2,3,3,3-pentafluoropropyl)-1H-pyrazol-4-yl]-7-(trifluoromethyl)-1H,5H-imidazo[1,2-a]pyrimidin-5-one] | 6.84
16 | Cn1cnn2c(=O)c(-c3cnn(CC(F)(F)C(F)(F)F)c3)c(C(F)(F)F)nc12 [Example 38, 3-methyl-6-[1-(2,2,3,3,3-pentafluoropropyl)-1H-pyrazol-4-yl]-5-(trifluoromethyl)-3H,7H-[1,2,4]triazolo[1,5-a]pyrimidin-7-one] | 7.17
17 | COc1cn2c(=O)c(-c3cnn(CCC(F)(F)F)c3)c(C(F)(F)F)nc2n1C [Example 72, 2-methoxy-1-methyl-7-(trifluoromethyl)-6-[1-(3,3,3-trifluoropropyl)-1H-pyrazol-4-yl]-1H,5H-imidazo[1,2-a]pyrimidin-5-one] | 6.87
18 | COCc1nn2c(=O)c(-c3cnn(CCC(F)(F)F)c3)c(C(F)(F)F)nc2s1 [Example 10, 2-(methoxymethyl)-7-(trifluoromethyl)-6-[1-(3,3,3-trifluoropropyl)-1H-pyrazol-4-yl]-5H-[1,3,4]thiadiazolo[3,2-a]pyrimidin-5-one] | 7.56
19 | CCc1nc2sc(C)nn2c(=O)c1-c1cnn(CC(F)(F)C(F)(F)F)c1 [Example 15, 7-ethyl-2-methyl-6-[1-(2,2,3,3,3-pentafluoropropyl)-1H-pyrazol-4-yl]-5H-[1,3,4]thiadiazolo[3,2-a]pyrimidin-5-one] | 5.82
20 | Cc1cn2c(=O)c(-c3cnn(CCC(F)(F)F)c3)c(C(F)(F)F)nc2n1CC1CC(F)(F)C1 [Example 82, 1-[(3,3-difluorocyclobutyl)methyl]-2-methyl-7-(trifluoromethyl)-6-[1-(3,3,3-trifluoropropyl)-1H-pyrazol-4-yl]-1H,5H-imidazo[1,2-a]pyrimidin-5-one] | 5.69
21 | Cc1cn2c(=O)c(-c3cnn(CC(F)(F)C(F)(F)F)c3)c(C(F)(F)F)nc2n1CC#N [Example 86, 2-{2-methyl-5-oxo-6-[1-(2,2,3,3,3-pentafluoropropyl)-1H-pyrazol-4-yl]-7-(trifluoromethyl)-1H,5H-imidazo[1,2-a]pyrimidin-1-yl}acetonitrile] | 7.96
22 | Cc1cn2c(=O)c(-c3cnn(CC(F)(F)C(F)(F)F)c3)c(C(F)(F)F)nc2n1-c1cn[nH]c1 [Example 103, 2-methyl-6-[1-(2,2,3,3,3-pentafluoropropyl)-1H-pyrazol-4-yl]-1-(1H-pyrazol-4-yl)-7-(trifluoromethyl)-1H,5H-imidazo[1,2-a]pyrimidin-5-one] | 6.52
23 | Cc1cn2c(=O)c(-c3cnn(CCC(F)(F)F)c3)c(C(F)(F)F)nc2n1CCO [Example 83, 1-(2-hydroxyethyl)-2-methyl-7-(trifluoromethyl)-6-[1-(3,3,3-trifluoropropyl)-1H-pyrazol-4-yl]-1H,5H-imidazo[1,2-a]pyrimidin-5-one] | 7.94
24 | CC(C)N1C(=O)Cn2c1nc(C(F)(F)F)c(-c1cnn(CC(F)(F)C(F)(F)F)c1)c2=O [Example 35, 6-[1-(2,2,3,3,3-pentafluoropropyl)-1H-pyrazol-4-yl]-1-(propan-2-yl)-7-(trifluoromethyl)-1H,2H,3H,5H-imidazo[1,2-a]pyrimidine-2,5-dione] | 6.93
25 | Cc1cn2c(=O)c(-c3cnn(CC(F)(F)C(F)(F)F)c3)c(C(F)(F)F)nc2s1 [Example 4, 2-methyl-6-[1-(2,2,3,3,3-pentafluoropropyl)-1H-pyrazol-4-yl]-7-(trifluoromethyl)-5H-[1,3]thiazolo[3,2-a]pyrimidin-5-one] | 7.75
26 | Cc1cn2c(=O)c(-c3cnn(CC(F)(F)C(F)(F)F)c3)c(C(F)(F)F)nc2n1-c1ccccn1 [Example 93, 2-methyl-6-[1-(2,2,3,3,3-pentafluoropropyl)-1H-pyrazol-4-yl]-1-(pyridin-2-yl)-7-(trifluoromethyl)-1H,5H-imidazo[1,2-a]pyrimidin-5-one] | 6.17
27 | Cc1nn2c(=O)c(-c3cnn(CCC(F)(F)F)c3)c(C(F)(F)F)nc2s1 [Example 20, 2-methyl-7-(trifluoromethyl)-6-[1-(3,3,3-trifluoropropyl)-1H-pyrazol-4-yl]-5H-[1,3,4]thiadiazolo[3,2-a]pyrimidin-5-one] | 7.48
